Experimental data reported in patent US20250320213A1, “Nitrogen-Containing Heterocyclic Compounds” (Pfizer Inc., priority 2024, published 2025).
Like-named read-outs stand apart in the source and are kept apart here.

Legend:
STAT6 = target: T1, STAT6 (Homo sapiens, UniProt P42226); assay: STAT6 Reporter Luciferase Assay (IL-13 stimulated HaCaT keratinocyte NanoLuc reporter cells); type: cell-based; conditions: read-out: Reporter EC50
T1 construct: stably transfected HaCaT keratinocyte cell line, which expresses NanoLuc luciferase reporter gene under the transcriptional control of the STAT6 responsive promoter; endogenous in cells; host or cells: HaCaT keratinocyte reporter cell line (stably transfected with a NanoLuc reporter)
T1 sequence (P42226 1-847): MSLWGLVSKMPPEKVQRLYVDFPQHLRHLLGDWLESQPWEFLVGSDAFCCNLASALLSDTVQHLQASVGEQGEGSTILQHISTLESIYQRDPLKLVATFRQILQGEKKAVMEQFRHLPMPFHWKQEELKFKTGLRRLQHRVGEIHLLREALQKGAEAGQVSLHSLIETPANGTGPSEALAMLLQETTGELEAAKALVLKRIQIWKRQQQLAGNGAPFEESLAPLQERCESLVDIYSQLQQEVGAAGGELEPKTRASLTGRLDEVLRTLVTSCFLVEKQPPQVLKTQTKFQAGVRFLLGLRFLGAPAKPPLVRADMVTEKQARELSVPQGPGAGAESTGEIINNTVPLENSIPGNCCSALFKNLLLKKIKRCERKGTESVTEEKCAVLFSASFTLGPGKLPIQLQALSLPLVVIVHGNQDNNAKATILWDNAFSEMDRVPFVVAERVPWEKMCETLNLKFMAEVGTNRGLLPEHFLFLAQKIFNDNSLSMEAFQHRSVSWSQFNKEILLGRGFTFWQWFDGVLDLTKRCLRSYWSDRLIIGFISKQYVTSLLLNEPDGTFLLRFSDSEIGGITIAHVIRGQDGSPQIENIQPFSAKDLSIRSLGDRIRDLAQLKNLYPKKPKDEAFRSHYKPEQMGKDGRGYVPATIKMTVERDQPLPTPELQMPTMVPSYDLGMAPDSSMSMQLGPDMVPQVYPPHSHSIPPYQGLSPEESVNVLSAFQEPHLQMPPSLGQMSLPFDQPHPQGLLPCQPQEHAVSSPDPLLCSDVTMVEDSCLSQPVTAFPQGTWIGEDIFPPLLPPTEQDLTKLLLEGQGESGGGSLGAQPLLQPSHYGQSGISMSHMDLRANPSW
Procedure, shortened: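 HaCaT cells stably carrying a NanoLuc reporter driven by the STAT6-responsive IL-13Ra2 promoter were preincubated with compounds for 2 h at 37 °C in 2% FBS medium. Cells were then stimulated with 0.12 nM IL-13 for 4 h, and luminescence was read after Nano-Glo substrate. Compounds ran as 11-point 4-fold dilutions in duplicate.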

[1] = system: CCL17 secretion in peripheral human whole blood; assay: Human Whole Blood (HWB) CCL17 TR-FRET Assay (IL-13 stimulated CCL17 secretion); type: cell-based
Procedure, shortened: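 IC50 values reflect inhibition of IL-13-driven CCL17 release in human whole blood. Blood was preincubated with compound 2 h, stimulated 48 h at 37 °C with IL-13 (10 ng/mL final), and serum CCL17 was measured by TR-FRET.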

[2] = STAT6 NanoLuc luciferase reporter, IL-13 stimulated HaCaT keratinocyte cells
[3] = Homo sapiens, 48 h, inhibition of CCL17 secretion in human whole blood, 10 ng/mL IL13, 48 hours
[4] = IL-13 stimulated HaCaT STAT6 NanoLuc reporter cells
[5] = Homo sapiens, 48 h, human whole blood, IL-13 stimulated
[6] = Homo sapiens, 48 h, human whole blood, 10 ng/mL IL13, 48 hours
[7] = inhibition of CCL17 secretion in human whole blood, 10 ng/mL IL13, 48 hours
[8] = human whole blood, IL-13 stimulated, 48 hours

| Compound | EC50 (STAT6; [2]) [nM] | EC50 (STAT6; [4]) [nM] | also measured |
| --- | --- | --- | --- |
| CC(C)n1nc(C(=O)NCc2ccc(NC(N)=O)cc2)c2c1CCN(c1ccc(C(=O)N(C)C)cn1)C2 [Example 133, 5-(5-(dimethylcarbamoyl)pyridin-2-yl)-1-isopropyl-N-(4-ureidobenzyl)-4,5,6,7-tetrahydro-1H-pyrazolo[4,3-c]pyridine-3-carboxamide] | 28 | – | IC50 [1, 3]: 48 nM |
| CC1CN(c2ccc(C(=O)N(C)C)cn2)Cc2c1nn1c2C(=O)N(Cc2ccc(NC(=O)N(C)C)cc2)CC1 (single isomer, unassigned) [Example 280, rel-(R or S)-6-(9-(4-(3,3-dimethylureido)benzyl)-4-methyl-10-oxo-3,4,7,8,9,10-hexahydropyrido[4′,3′:3,4]pyrazolo[1,5-alpyrazin-2(1H)-yl)-N,N-dimethylnicotinamide] | – | 10 | IC50 [1, 5]: 134 nM |
| CC(C)n1nc(C(=O)NCc2ccc(NC(=O)N(C)C)cc2)c2c1C(C(F)(F)F)CN(c1ccc(C(=O)N(C)C)cn1)C2 (racemic) [Example 546, rac-(R)-5-(5-(Dimethylcarbamoyl)pyridin-2-yl)-N-(4-(3,3-dimethylureido)benzyl)-1-isopropyl-7-(trifluoromethyl)-4,5,6,7-tetrahydro-1H-pyrazolo[4,3-c]pyridine-3-carboxamide] | – | 0.3 | IC50 [1, 6]: 5 nM |
| CC[C@H]1c2c(C(=O)NCc3ccc(NC(=O)N(C)C)cc3)nn(C(C)C)c2CCN1c1ccc(C(=O)N(C)C)cn1 (single isomer, unassigned) [Example 528] | – | 17 | IC50 ([1]; human whole blood, 10 ng/mL IL13, 48 hours): 67 nM |
| CC(C)n1nc(C(=O)NCc2ccc(NC(=O)N3CCC4(CCCNC4)CC3)cc2)c2c1[C@@H](C)CN(c1ccc(C(=O)N(C)C)cc1)C2 [Example 622, (S)-N-(4-((5-(4-(dimethylcarbamoyl)phenyl)-1-isopropyl-7-methyl-4,5,6,7-tetrahydro-1H-pyrazolo[4,3-c]pyridine-3-carboxamido)methyl)phenyl)-2,9-diazaspiro[5.5]undecane-9-carboxamide] | – | 4 | IC50 [1, 6]: 16 nM |
| CC1CN(c2ccc(C(=O)N(C)C)cn2)Cc2c(C(=O)NCc3ccc(NC(=O)N(C)C)cc3)nn(C)c21 (racemic) [Example 6, rac-(R)-5-(5-(Dimethylcarbamoyl)pyridin-2-yl)-N-(4-(3,3-dimethylureido)benzyl)-1,7-dimethyl-4,5,6,7-tetrahydro-1H-pyrazolo[4,3-c]pyridine-3-carboxamide] | 4 | – | IC50 [1, 7]: 25 nM |
| CC(C)n1nc(C(=O)NCc2ccc(NC(N)=O)cc2)c2c1[C@@H](C)CN(c1ccc(-c3nccn3C)cn1)C2 [Example 516, (S)-1-isopropyl-7-methyl-5-(5-(1-methyl-1H-imidazol-2-yl)pyridin-2-yl)-N-(4-ureidobenzyl)-4,5,6,7-tetrahydro-1H-pyrazolo[4,3-c]pyridine-3-carboxamide] | – | 1 | IC50 [1, 5]: 5 nM |
| CCC1Cc2c(c(C(=O)NCc3ccc(NC(=O)N(C)C)cc3)nn2CC)CN1c1ccc(C(=O)N(C)C)cn1 (single isomer, unassigned) [Example 118, rel-(R or S)-5-(5-(dimethylcarbamoyl)pyridin-2-yl)-N-(4-(3,3-dimethylureido)benzyl)-1,6-diethyl-4,5,6,7-tetrahydro-1H-pyrazolo[4,3-c]pyridine-3-carboxamide] | 25 | – | IC50 [1, 7]: 116 nM |
| CCc1nc(C(=O)NCc2ccc(NC(=O)N(C)C)cc2)c2n1C(C)CN(c1ccc(C(=O)N(C)C)cc1)C2 (single isomer, unassigned) [Example 428, rel-(R or S)-7-(4-(dimethylcarbamoyl)phenyl)-N-(4-(3,3-dimethylureido)benzyl)-3-ethyl-5-methyl-5,6,7,8-tetrahydroimidazo[1,5-a]pyrazine-1-carboxamide] | – | 17 | IC50 [1, 8]: 140 nM |
| CN(C)C(=O)Nc1ccc(CNC(=O)c2ncn3c2CN(c2ccc(C(=O)N(C)C)cn2)CC3)cc1 [Example 17, 7-(5-(dimethylcarbamoyl)pyridin-2-yl)-N-(4-(3,3-dimethylureido)benzyl)-5,6,7,8-tetrahydroimidazo[1,5-a]pyrazine-1-carboxamide] | 322 | – | IC50 [1, 3]: 291 nM |
| CC(C)n1nc(C(=O)NCc2ccc(NC(=O)N(C)C)cn2)c2c1[C@@H](C)CN(c1ccc(C(=O)N(C)C)cn1)C2 [Example 350, (S)-5-(5-(dimethylcarbamoyl)pyridin-2-yl)-N-((5-(3,3-dimethylureido)pyridin-2-yl)methyl)-1-isopropyl-7-methyl-4,5,6,7-tetrahydro-1H-pyrazolo[4,3-c]pyridine-3-carboxamide] | – | 2 | IC50 [1, 5]: 6 nM |
| CC(C)n1nc(C(=O)NCc2ccc(NC(=O)N(C)C)cc2)c2c1CCN(c1ccc(NS(C)(=O)=O)cn1)C2 [Example 138, N-(4-(3,3-dimethylureido)benzyl)-1-isopropyl-5-(5-(methylsulfonamido)pyridin-2-yl)-4,5,6,7-tetrahydro-1H-pyrazolo[4,3-c]pyridine-3-carboxamide] | 248 | – | IC50 [1, 3]: 1140 nM |
| CC(C)n1nc(C(=O)NCc2ccc(NC(=O)N3CCC(C)(O)C3)cc2)c2c1CCN(c1ccc(C(=O)N(C)C)cn1)C2 (racemic) [Example 160, rac-(R)-5-(5-(dimethylcarbamoyl)pyridin-2-yl)-N-(4-(3-hydroxy-3-methylpyrrolidine-1-carboxamido)benzyl)-1-isopropyl-4,5,6,7-tetrahydro-1H-pyrazolo[4,3-c]pyridine-3-carboxamide] | 15 | – | IC50 [1, 3]: 21 nM |
| CN(C)C(=O)Nc1ccc(CNC(=O)c2nn(C)c3c2[C@H]2CC[C@@H](C3)N2c2ccc(C(=O)N(C)C)cn2)cc1 (racemic) [Example 86, rac-(4R,7S)-9-(5-(dimethylcarbamoyl)pyridin-2-yl)-N-(4-(3,3-dimethylureido)benzyl)-1-methyl-1,4,5,6,7,8-hexahydro-4,7-epiminocyclohepta[c]pyrazole-3-carboxamide] | > 10000 | – | IC50 [1, 3]: > 30000 nM |
| CC(C)n1nc(C(=O)NCc2ccc(NC(=O)N(C)C)cc2)c2c1[C@H](C)CN(c1ncc(C(=O)N(C)C)cn1)C2 (single isomer, unassigned) [Example 552] | – | 34 | IC50 [1, 6]: 87 nM |
| CCn1nc(C(=O)NCc2ccc(NC(=O)N(C)C)cc2)c2c1[C@H]1CC[C@H]1N(c1ccc(C(=O)N(C)C)cn1)C2 (single isomer, unassigned) [Example 231] | – | 2 | IC50 [1, 8]: 23 nM |
| CC(C)n1nc(C(=O)NCc2ccc(NC(=O)N3CCCC3)cc2)c2c1[C@@H](C)CN(c1ccc(C(=O)N(C)C)cn1)C2 [Example 583, (S)-5-(5-(dimethylcarbamoyl)pyridin-2-yl)-1-isopropyl-7-methyl-N-(4-(pyrrolidine-1-carboxamido)benzyl)-4,5,6,7-tetrahydro-1H-pyrazolo[4,3-c]pyridine-3-carboxamide] | – | 1 | IC50 [1, 6]: 17 nM |
| CC(C)n1nc(C(=O)NCc2ccc(NC(=O)N3CCN(C)CC3)cc2)c2c1[C@@H](C)CN(c1ccc(-n3ccccc3=O)cc1)C2 [Example 594, (S)-1-isopropyl-7-methyl-N-(4-(4-methylpiperazine-1-carboxamido)benzyl)-5-(4-(2-oxopyridin-1(2H)-yl)phenyl)-4,5,6,7-tetrahydro-1H-pyrazolo[4,3-c]pyridine-3-carboxamide] | – | 2 | IC50 [1, 6]: 25 nM |
